Entries after “also recorded” stand apart in the source; their conditions may differ.
Legend:
[1] = Plasma, brain and spinal cord levels in ABH mice with spastic EAE; assay type: in vivo, mouse
Experimental: The stability of compounds when subjected to hepatic and plasma degradation was assessed in vitro by Inpharmatica, Cambridge, UK. Compounds (1 μM) were incubated with either pooled mouse liver microsomes (0.1 mg protein mL^−1) or pooled mouse plasma at 37°C for 0, 5, 10, 20 and 40 min before termination with acetonitrile containing warfarin as an analytical internal standard. Samples were centrifuged, and the resultant supernatant analysed for parent compound. The mass responses at baseline were taken as the 100% reference values against which the disappearance of the compound was measured. The natural log of the % remaining values was used to generate linear plots of disappearance of the compounds. Half‐life values were calculated from the slope of these plots. Hepatocyte metabolism was assessed by Cyprotex, Macclesfield, and 10 μM VSN16R was incubated with primary mouse, rat, monkey (Macaque) and human hepatocytes for 1 h, and the presence of metabolites was assessed using liquid […] mass spectroscopy. The stability of VSN16R was assessed in vivo by Inpharmatica, Cyprotex and Charles Rivers, Cambridge. Blood (plasma) samples were obtained prior to and 5 min to 24 h after drug administration of 2–5 mg·kg^−1 i.v. or 5 mg·kg^−1 p.o. VSN16R into outbred mice and rats (n = 3 per time point). In addition, plasma, brain and spinal cord samples were obtained from ABH with spastic EAE. Immediately after blood collection, the brain and spinal cord were removed and then stored at −20°C prior to assay. Tissue samples were weighed, homogenized and centrifuged, and the lysates generated. Brain lysates and plasma were assayed by LC–MS methods by Inpharmatica/Charles Rivers, Cambridge, UK. This was also performed using a Waters Xevo TQ or API4000, AB Sciex mass spectrometer using spiked samples as standards. PK Solutions Software (Summit Research Services, Montrose, CO, USA), AB Sciex Analyst software combined with Thermo Fisher Scientific Watson LIMS processing and reporting software or WinNonLin pharmacokinetic or PK solutions 2.0 software (Summit Research Services, Montrose CO, USA) were used to produce PK parameters. Data are expressed as mean ± SEM. The detection limit of VSN16R was 2 ng·mL^−1 in plasma and brain and 14 ng·mL^−1 in spinal cords. The detection limit of VSN22R was 2 ng·mL^−1 in plasma and 0.1 ng·mL^−1 for VSN44R in plasma. Pharmacokinetics in toxicological samples in rats (n = 6 per group), dogs (n = 6 per group) and humans (n = 6 per group) were performed by Charles Rivers (Edinburgh, UK).

[2] = test system: Salmonella typhimurium and Escherichia coli strains; assay: Standard Ames test (summary); assay type: cell-based
Experimental: Strain of Organism Treatment Dose Revertants per plate
First Mutation without Metabolic Stimulation
Second Mutation without Metabolic Stimulation
VSN16R was incubated at various concentrations with either TA1535, TA1537, TA98 and TA100 strains of Salmonella typhimurium, which carry mutations in genes involved in histidine synthesis, and WP2uvvA Escherichia coli. The bacteria are spread on agar plates with limiting histidine content and incubated for 48 h. The number of histidine gene negative to positive revertants was assessed in two experiments. The results represent the mean ± SD. n=3/group. This was performed by Charles

[3] = test system: healthy volunteers; assay: Phase I safety study, adverse events; assay type: in vivo, human
[4] = molecular target: T1, BKCa channel (Homo sapiens, UniProt Q12791+Q86W47); assay: Single‐channel inside‐out patch clamp, EA.hy926 cells; assay type: cell-based; conditions: 3 μM, inner surface of membrane, 40 mV, 0.3 μM free Ca^2+
T1 construct: host or cells: EA.hy926 endothelial cells
T1 sequence (Q12791 whole entry): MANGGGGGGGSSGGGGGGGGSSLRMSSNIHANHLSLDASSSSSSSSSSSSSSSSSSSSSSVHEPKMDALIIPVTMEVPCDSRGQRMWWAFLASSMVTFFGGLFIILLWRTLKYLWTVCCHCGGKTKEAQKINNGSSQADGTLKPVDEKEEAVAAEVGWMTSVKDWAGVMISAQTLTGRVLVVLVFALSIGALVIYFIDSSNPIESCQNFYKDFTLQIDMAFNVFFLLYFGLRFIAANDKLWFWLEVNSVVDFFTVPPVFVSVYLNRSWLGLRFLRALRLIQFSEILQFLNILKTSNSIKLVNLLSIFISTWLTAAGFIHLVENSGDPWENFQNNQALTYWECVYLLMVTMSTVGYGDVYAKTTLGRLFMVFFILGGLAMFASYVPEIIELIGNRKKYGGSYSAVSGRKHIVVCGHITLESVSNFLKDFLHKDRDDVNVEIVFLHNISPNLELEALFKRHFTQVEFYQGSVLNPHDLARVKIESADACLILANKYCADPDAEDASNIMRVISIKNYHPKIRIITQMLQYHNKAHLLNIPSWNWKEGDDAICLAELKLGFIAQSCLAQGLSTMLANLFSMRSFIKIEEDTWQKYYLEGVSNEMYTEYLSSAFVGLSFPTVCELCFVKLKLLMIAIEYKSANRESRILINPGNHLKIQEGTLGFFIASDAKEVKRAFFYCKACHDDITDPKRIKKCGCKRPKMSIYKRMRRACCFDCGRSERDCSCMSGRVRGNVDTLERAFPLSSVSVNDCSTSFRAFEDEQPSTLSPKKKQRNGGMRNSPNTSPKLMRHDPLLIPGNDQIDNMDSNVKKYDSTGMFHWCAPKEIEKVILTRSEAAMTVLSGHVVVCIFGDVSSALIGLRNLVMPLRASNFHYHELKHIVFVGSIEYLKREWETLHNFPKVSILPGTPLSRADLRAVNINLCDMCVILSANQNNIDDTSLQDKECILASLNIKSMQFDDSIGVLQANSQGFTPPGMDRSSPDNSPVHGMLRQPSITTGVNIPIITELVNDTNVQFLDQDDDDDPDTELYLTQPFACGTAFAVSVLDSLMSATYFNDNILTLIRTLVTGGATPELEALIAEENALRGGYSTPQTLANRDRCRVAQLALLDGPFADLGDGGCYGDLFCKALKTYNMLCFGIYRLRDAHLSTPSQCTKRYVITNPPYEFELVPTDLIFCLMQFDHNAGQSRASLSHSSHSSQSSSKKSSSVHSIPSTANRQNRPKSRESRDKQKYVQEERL
T1 sequence (Q86W47 whole entry): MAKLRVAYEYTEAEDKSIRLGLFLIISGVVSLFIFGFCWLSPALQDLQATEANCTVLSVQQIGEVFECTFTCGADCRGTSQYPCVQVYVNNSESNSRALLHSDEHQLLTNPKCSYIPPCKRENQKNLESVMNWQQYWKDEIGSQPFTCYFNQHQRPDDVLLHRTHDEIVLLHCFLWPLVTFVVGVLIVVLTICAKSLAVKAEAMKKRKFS
Experimental: The human EA.hy926 endothelial cells (ATCC, Manassas, USA) were grown in DMEM containing 10% FCS and 1% HAT (5 mM hypoxanthine, 20 μM aminopterin and 0.8 mM thymidine) and were maintained in an incubator at 37°C in 5% CO2 atmosphere (Bondarenko et al., 2013). Human HNC‐2 neuronal cells were obtained from ATCC. For experiments, cells were plated on glass coverslips. Single‐channel recordings were obtained from excised inside‐out membrane patches in symmetrical solutions using the patch‐clamp technique. All patch‐clamp experiments were performed at room temperature with the use of a water hydraulic micromanipulator (WR‐6, Narishige, Japan). […] The pipettes were filled with 140 mM KCl, 10 mM HEPES, 1 mM MgCl2, 5 mM EGTA and […] CaCl2 buffered to pH 7.2 by adding KOH. Cells were super‐perfused with a bath solution containing 140 mM NaCl, 5 mM KCl, 1.2 mM MgCl2, 10 mM HEPES, 10 mM glucose and 2.4 mM CaCl2. Following gigaseal formation, bath solution was switched to the following: 140 mM KCl, 10 mM HEPES, 1 mM MgCl2, 5 mM EGTA and a designated free Ca^2+ concentration, which was adjusted by adding different amounts of CaCl2 buffered to pH 7.2. (Bondarenko et al., 2011; Bondarenko et al., 2013). Single‐channel activity was expressed as NPo, where N represents the number of functional ion channels in the membrane patch and Po represents the open channel probability determined from idealized traces (Bondarenko et al., 2011). NPo was obtained from ≥20 s of continuous recording under each experimental condition. The effect of VSN16R was estimated after 3 min of continuous exposure to VSN16R‐containing solution. Data were analysed by ANOVA, and statistical significance was evaluated using Scheffés post hoc test of the Prism 5 software for Windows (GraphPad Software).

[5] = test system: primary porcine aorta endothelium; assay: Patch clamp of primary pig aorta endothelium; assay type: cell-based
[6] = molecular target: T2, Y2 (Homo sapiens, UniProt P49146); assay: Receptor binding profile of VSN16R; conditions: 10µM VSN16R
T2 construct: purchased Cerep; Chantest; DiscoveRx; Multispan; MDS Pharma Services
T2 sequence (P49146 whole entry): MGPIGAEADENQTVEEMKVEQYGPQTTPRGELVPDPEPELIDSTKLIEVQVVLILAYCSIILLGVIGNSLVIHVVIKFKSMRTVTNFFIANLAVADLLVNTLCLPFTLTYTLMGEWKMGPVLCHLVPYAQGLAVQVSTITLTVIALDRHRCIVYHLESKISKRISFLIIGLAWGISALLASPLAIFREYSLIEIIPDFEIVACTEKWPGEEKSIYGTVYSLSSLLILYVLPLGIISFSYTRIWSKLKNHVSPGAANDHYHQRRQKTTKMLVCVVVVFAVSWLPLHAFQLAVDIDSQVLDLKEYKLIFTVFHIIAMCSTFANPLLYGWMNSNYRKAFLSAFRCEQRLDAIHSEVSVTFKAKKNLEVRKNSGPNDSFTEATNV

[7] = molecular target: T3, VIP1 (Homo sapiens, UniProt P32241); assay: Receptor binding profile of VSN16R; conditions: 10µM VSN16R
T3 construct: purchased Cerep; Chantest; DiscoveRx; Multispan; MDS Pharma Services
T3 sequence (P32241 31-457): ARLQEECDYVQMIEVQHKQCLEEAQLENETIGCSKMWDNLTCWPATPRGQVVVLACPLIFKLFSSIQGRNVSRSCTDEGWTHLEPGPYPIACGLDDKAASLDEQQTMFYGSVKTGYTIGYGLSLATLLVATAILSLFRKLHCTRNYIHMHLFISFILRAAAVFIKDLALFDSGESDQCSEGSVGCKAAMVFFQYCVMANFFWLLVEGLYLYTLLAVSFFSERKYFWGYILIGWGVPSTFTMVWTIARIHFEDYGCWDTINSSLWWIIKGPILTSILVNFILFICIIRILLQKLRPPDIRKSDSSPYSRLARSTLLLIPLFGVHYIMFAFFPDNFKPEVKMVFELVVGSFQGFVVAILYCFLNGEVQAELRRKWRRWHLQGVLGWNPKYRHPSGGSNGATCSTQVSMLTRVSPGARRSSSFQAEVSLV

[8] = molecular target: CYP450 2B6 (Homo sapiens, UniProt P20813)
Chain of CYP450 2B6 (P20813 whole entry): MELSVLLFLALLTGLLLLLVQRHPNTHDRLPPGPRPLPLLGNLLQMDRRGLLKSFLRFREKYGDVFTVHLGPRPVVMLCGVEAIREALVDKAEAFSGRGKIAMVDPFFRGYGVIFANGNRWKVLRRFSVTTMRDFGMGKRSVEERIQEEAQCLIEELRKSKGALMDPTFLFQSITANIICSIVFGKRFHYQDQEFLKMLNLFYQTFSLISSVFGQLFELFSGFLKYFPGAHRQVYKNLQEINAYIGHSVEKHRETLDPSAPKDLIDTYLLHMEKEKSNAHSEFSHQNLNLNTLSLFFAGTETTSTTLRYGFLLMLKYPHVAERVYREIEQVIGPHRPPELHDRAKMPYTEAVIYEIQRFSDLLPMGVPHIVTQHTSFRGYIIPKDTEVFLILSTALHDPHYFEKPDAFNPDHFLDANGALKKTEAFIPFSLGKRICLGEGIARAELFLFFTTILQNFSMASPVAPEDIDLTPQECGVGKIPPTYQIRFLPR
Description: IC50 Inhibition of substrate binding
Inhibition of binding of either 3-cyano-7-ethoxycoumarin, dibenzylfluorescein or 7-benzyoxy-4-
(trifluoromethyl) coumarin in human enzyme transfected BTI NN-5B1-4 cells or Sf9 insect cells or
inhibition of dextromethorphan substrate to CYP450 2D6 in liver microsomes.

C[C@H](CO)NC(=O)c1cccc(/C=C\CCCC(=O)N(C)C)c1 [VSN16R]
Plasma level of the named species ([1]; after 5 mg·kg^−1 p.o. VSN16R, ABH mice with spastic EAE): 73.0 ± 6.1 ng/mL
Mice with drug detected in brains ([1]; chronic EAE animals): 4/4
Mice with drug detected in spinal cords ([1]; chronic EAE animals): 2/4
Mice with drug detected in brains ([1]; normal animals): 4/4
Mice with drug detected in spinal cords ([1]; normal animals): 0/4
Mutagenesis in a standard Ames test [2]: no evidence of mutagenesis
Vomiting or issues of taste ([3]; encapsulated drug, human studies): no vomiting or issues of taste were reported
Sedation in humans ([3]; in vivo): does not induce sedation
Serious adverse events ([3]; multiple ascending dose b.i.d.): no serious adverse events
Subjects with a possible side effect of the treatment ([3]; multiple ascending dose b.i.d., 3/18 subjects): 16.7%
Subjects reporting adverse events ([3]; multiple ascending dose b.i.d., 6/18 subjects): 33.3%
Serious adverse drug‐related events ([3]; single ascending dose): No serious adverse drug‐related events occurred
Adverse events reported ([3]; single ascending dose 25–800 mg): 14.3%
Subjects with a possible associated effect with treatment ([3]; single ascending dose, 5/42 subjects): 11.9%
Single BKCa channel activity [4]: facilitated single BKCa channel activity
Effect on primary porcine aorta endothelium [5]: do not respond; also recorded: had no effects
Activity [6]: Negligible Activity
Activity [7]: Negligible Activity
IC50 [8]: > 10 µM
